Read-outs that look alike come from different tables or passages of the source.
Key:
[1] = JACKPOT3 single-ascending-dose plasma PK, healthy Chinese participants; type: in vivo, human; details: for AUC(0-inf) / Cmax / Vd/F / half-life / Tmax: human, plasma; for AUC(0-inf) / Cmax: geometric mean (CV%)
Excerpt: This was a SAD study in healthy adult Asian participants, with a study design similar to the SAD cohorts of JACKPOT2 study. […] A total of 32 healthy participants were randomized to receive a single dose of golidocitinib or matched placebo (6:2).
After single oral administration, serial blood samples were obtained on Day 1 at pre-dose, and at 0.5, 1, 1.5, 2, 3, 4, 6, 8, 12, 24 (Day 2), 48 (Day 3), 72 (Day 4), 120 (Day 6), 168 (Day 8) and 216 (Day 10) hours post-dose for plasma PK analysis. Urine samples were collected during the collection intervals of 0-4, 4-10, 10-24, 24-48, 48-72, 72-96, 96-120, 120-144, and 144-168 hours following a single oral dose of 100 mg for urine PK analysis. Validated LC/MS methods were used for the determination of golidocitinib in human plasma and urine by Frontage Laboratories Inc. (Shanghai). This method was cross validated by Frontage Laboratories Inc. (New Jersey, USA) and met the acceptance criteria.

[2] = Safety (TEAEs), JACKPOT2 SAD cohorts; type: in vivo, human; details: n = 4
Excerpt: (§1) Safety assessments included monitoring of adverse events/serious adverse events, clinical safety laboratory tests (clinical chemistry, hematology, coagulation, and urinalysis tests), 12-lead ECG, vital signs (blood pressure, pulse rate, and respiratory rate), and pulmonary function. All adverse events were coded using the Medical Dictionary for Regulatory Activities (MedDRA), version 22.0. The CTCAE 5.0 was used to define the intensity of AEs.

[3] = One-month toxicology study in rat; details: in vivo
[4] = Overall safety and tolerability, JACKPOT2 and JACKPOT3; type: in vivo, human
Excerpt: as §1
The safety monitoring for both JACKPOT2 and JACKPOT3 was similar, included monitoring of adverse events/serious adverse events, clinical safety laboratory tests (clinical chemistry, hematology, coagulation, and urinalysis tests), 12-lead ECG, vital signs (blood pressure, pulse rate, and respiratory rate), and pulmonary function.

## COc1nn(C)cc1Nc1nccc(-c2c[nH]c3c(NC(=O)[C@@H](C)N4CCN(C)CC4)cccc23)n1 [golidocitinib, (2R)-N-[3-[2-[(3-Methoxy-1-methyl-pyrazol-4-yl)amino]pyrimidin-4-yl]-1H-indol-7-yl]-2-(4-methylpiperazin-1-yl)propenamide]
[1]; oral, single dose 25 mg
  AUC(0-inf): 1230 ng·h/mL
  Cmax: 40.8 ng/mL
[1]; oral, single dose 25 mg, mean (SD), read-out: Vz/F
  Vd/F: 1040 L
[1]; oral, single dose 25 mg, median (min, max), read-out: t1/2 (converted)
  half-life: 38 h
[1]; oral, single dose 25 mg, median (min, max), read-out: tmax
  Tmax: 3 h
[1]; oral, single dose 50 mg
  AUC(0-inf): 2370 ng·h/mL
  Cmax: 75 ng/mL
[1]; oral, single dose 50 mg, mean (SD), read-out: Vz/F
  Vd/F: 1160 L
[1]; oral, single dose 50 mg, median (min, max), read-out: t1/2 (converted)
  half-life: 39.1 h
[1]; oral, single dose 50 mg, median (min, max), read-out: tmax
  Tmax: 2 h
[1]; oral, single dose 100 mg
  AUC(0-inf): 4740 ng·h/mL
  Cmax: 184 ng/mL
[1]; oral, single dose 100 mg, mean (SD), read-out: Vz/F
  Vd/F: 826 L
[1]; oral, single dose 100 mg, median (min, max), read-out: t1/2 (converted)
  half-life: 28.3 h
[1]; oral, single dose 100 mg, median (min, max), read-out: tmax
  Tmax: 2 h
[1]; oral, single dose 150 mg
  AUC(0-inf): 8340 ng·h/mL
  Cmax: 280 ng/mL
[1]; oral, single dose 150 mg, mean (SD), read-out: Vz/F
  Vd/F: 1210 L
[1]; oral, single dose 150 mg, median (min, max), read-out: t1/2 (converted)
  half-life: 46.7 h
[1]; oral, single dose 150 mg, median (min, max), read-out: tmax
  Tmax: 1.75 h
[1]; single oral administration, Chinese participants, read-out: mean Vz/F
  Vd/F: 826 to 1210 L
[1]; single oral administration, across the dose range, Chinese participants, read-out: median terminal half-life (t1/2)
  half-life: 28.3 to 46.7 h
[1]; single oral administration, across the dose range, Chinese participants, read-out: median tmax
  Tmax: 1.75 to 3 h
[1]; single dose 50 mg, mean (SD)
  CL/F: 21.2 (13.1) L/hr
[1]; single dose 100 mg, mean (SD)
  CL/F: 21.4 (16.5) L/hr
[1]; single dose 150 mg, mean (SD)
  CL/F: 18.1 (14.2) L/hr
[2]; 5 mg single dose
  ALT Increased: 0 n (%)
  AST Increased: 0 n (%)
  Anemia: 1 (25.0%) n (%)
  Blood and Lymphatic System Disorders: 2 (50.0%) n (%)
  Chest Discomfort: 0 n (%)
  Dyspnea: 0 n (%)
  Eosinophilia: 2 (50.0%) n (%)
  General Disorders and Administration Site Conditions: 0 n (%)
  Investigations: 0 n (%)
  N-Terminal Pro-BNP: 0 n (%)
  Nasal Congestion: 1 (25.0%) n (%)
  Neutropenia: 0 n (%)
  Oropharyngeal Pain: 1 (25.0%) n (%)
  Respiratory, Thoracic and Mediastinal Disorders: 2 (50.0%) n (%)
  Subjects with at least one TEAE: 2 (50.0%) n (%)
  Thrombocytosis: 0 n (%)
[2]; 20 mg single dose
  ALT Increased: 0 n (%)
  AST Increased: 0 n (%)
  Anemia: 0 n (%)
  Blood and Lymphatic System Disorders: 2 (50.0%) n (%)
  Chest Discomfort: 0 n (%)
  Dyspnea: 0 n (%)
  Eosinophilia: 0 n (%)
  General Disorders and Administration Site Conditions: 0 n (%)
  Investigations: 0 n (%)
  N-Terminal Pro-BNP: 0 n (%)
  Nasal Congestion: 0 n (%)
  Neutropenia: 1 (25.0%) n (%)
  Oropharyngeal Pain: 0 n (%)
  Respiratory, Thoracic and Mediastinal Disorders: 0 n (%)
  Subjects with at least one TEAE: 2 (50.0%) n (%)
  Thrombocytosis: 1 (25.0%) n (%)
[2]; 50 mg single dose
  ALT Increased: 0 n (%)
  AST Increased: 0 n (%)
  Anemia: 0 n (%)
  Blood and Lymphatic System Disorders: 0 n (%)
  Chest Discomfort: 0 n (%)
  Dyspnea: 0 n (%)
  Eosinophilia: 0 n (%)
  General Disorders and Administration Site Conditions: 0 n (%)
  Investigations: 1 (25.0%) n (%)
  N-Terminal Pro-BNP: 1 (25.0%) n (%)
  Nasal Congestion: 0 n (%)
  Neutropenia: 0 n (%)
  Oropharyngeal Pain: 0 n (%)
  Respiratory, Thoracic and Mediastinal Disorders: 0 n (%)
  Subjects with at least one TEAE: 1 (25.0%) n (%)
  Thrombocytosis: 0 n (%)
[2]; 100 mg single dose
  ALT Increased: 0 n (%)
  AST Increased: 0 n (%)
  Anemia: 0 n (%)
  Blood and Lymphatic System Disorders: 1 (25.0%) n (%)
  Chest Discomfort: 1 (25.0%) n (%)
  Dyspnea: 0 n (%)
  Eosinophilia: 0 n (%)
  General Disorders and Administration Site Conditions: 1 (25.0%) n (%)
  Investigations: 0 n (%)
  N-Terminal Pro-BNP: 0 n (%)
  Nasal Congestion: 0 n (%)
  Neutropenia: 0 n (%)
  Oropharyngeal Pain: 0 n (%)
  Respiratory, Thoracic and Mediastinal Disorders: 0 n (%)
  Subjects with at least one TEAE: 1 (25.0%) n (%)
  Thrombocytosis: 1 (25.0%) n (%)
[2]; 150 mg single dose
  ALT Increased: 0 n (%)
  AST Increased: 0 n (%)
  Anemia: 0 n (%)
  Blood and Lymphatic System Disorders: 0 n (%)
  Chest Discomfort: 0 n (%)
  Dyspnea: 0 n (%)
  Eosinophilia: 0 n (%)
  General Disorders and Administration Site Conditions: 0 n (%)
  Investigations: 0 n (%)
  N-Terminal Pro-BNP: 0 n (%)
  Nasal Congestion: 0 n (%)
  Neutropenia: 0 n (%)
  Oropharyngeal Pain: 0 n (%)
  Respiratory, Thoracic and Mediastinal Disorders: 0 n (%)
  Subjects with at least one TEAE: 0 n (%)
  Thrombocytosis: 0 n (%)
[3]; body surface area (BSA) conversion, read-out: Human Equivalent Dose (HED) of the NOAEL
  Human equivalent dose of the NOAEL at 1 month: 0.972 mg/kg
[3]; most sensitive species (rat), one-month toxicology study, read-out: No Observed Adverse Effect Level (NOAEL)
  NOAEL at 1 month: 6 mg/kg
[4]; healthy participants, 5 mg to 150 mg single dose, 25 mg to 100 mg multiple dose
  tolerability: well-tolerated
[4]; in vivo
  serious adverse events: No serious adverse events were reported
[4]; investigators' assessment
  CTCAE grade 3 or higher drug-related TEAE: no CTCAE grade 3 or higher drug-related TEAE was reported

Reference: article PMC10108266, “Pharmacokinetic characteristics of golidocitinib, a highly selective JAK1 inhibitor, in healthy adult participants” (Frontiers in Immunology, 2023)
